# Measurements from article doi:10.1101/2025.04.25.650653, “Hierarchical small molecule inhibition of MYST acetyltransferases” (bioRxiv, 2025).
# pIC50, pKd: −log10 of the molar value. Like-named read-outs stand apart in the source and are kept apart here.
# Legend:
# [1] = tested on: KAT5 MYST domain; conditions: MYST domains, cited from earlier work; for pIC50: read-out: KAT5 IC50
# [2] = tested on: H4K16Ac (KAT8); test: Histone acetylation biomarker western blot, MCF-7; format: cell-based; conditions: MCF-7 cells, 24 h, up to 30 μM
# Protocol: (§1) Target engagement was assessed using the panel of MYST-dependent histone acetylation biomarkers defined above. […] While WM-3835 has been applied to study KAT7, its initial publication alludes to its ability to inhibit both KAT6A/B and KAT7.[14], [43] […] All commercial vendors currently market WM-3835 as a KAT7 inhibitor.
# (§2) General materials and methods
# Total protein on western blots was […]
# (§3) manufacturer's protocols.
# KAT capture and competitive chemoproteomic profiling […]
# (§4) for 2 hours, then lyophilized.
# 12 μL triethylamine. […] The beads were then magnetically separated […]
# distinguish between tightly grouped and diffuse clusters, compactness was quantified by calculating the average pairwise Euclidean distance between all points within each cluster. Clusters with lower average
# [3] = target: KAT7 MYST domain; conditions: SPR, MYST domains, as previously described (WM-8014); ref https://www.nature.com/articles/s41586-019-1835-6; cited from earlier work
# [4] = target: KAT5 MYST domain; conditions: SPR, MYST domains, as previously described (WM-8014); ref https://www.nature.com/articles/s41586-019-1835-6; cited from earlier work
# [5] = tested on: KAT7 MYST domain; conditions: MYST domains, cited from earlier work; for pIC50: read-out: KAT7 IC50
# [6] = tested on: H3K23Ac (KAT6A/B); test: Histone acetylation biomarker western blot, MCF-7; format: cell-based; conditions: MCF-7 cells, 24 h
# [7] = tested on: KAT6A MYST domain; conditions: MYST domains, cited from earlier work; for pIC50: read-out: KAT6A IC50
# [8] = tested on: histone acetylation biomarkers for KAT6, KAT7, KAT8, and KAT5; test: Histone acetylation biomarker panel by western blot, MCF-7; format: cell-based
# Description: Figure 5. Comparative cellular analysis of orthogonal MYST inhibitor chemotypes. (A) Chemical structures of commonly used MYST KAT inhibitors. Annotated target: KAT enzyme specified as target of each inhibitor in scientific or commercial vendor literature. Biomarker: KAT-regulated histone acetylation biomarker found to be modulated by each compound in this study. (B) Cellular response of histone acetylation biomarkers for KAT6, KAT7, KAT8, and KAT5 to treatment with drug-like MYST acetyltransferases inhibitors. MCF-7 cells were treated with escalating dosages (0.1, 1, 10, 30 μM.) of each compound for 24 h. […] Data is representative of n=2 biological replicates. […]
# as §1, §2
# Total protein on western blots was
# as §3
# KAT capture and competitive chemoproteomic profiling
# as §4
# [9] = tested on: proteins captured by H3K14-CoA resin from HeLa nuclear extracts; test: Proteome-wide competitive chemoproteomic profiling (H3K14-CoA beads, TMT LC-MS/MS); format: binding; conditions: for Log2FC (100nM) / (000nM): 100 nM WM-3835, H3K14-CoA beads; for Log2FC (100nM) / (000nM) / Log2FC (1000nM) / (000nM) / Log2FC (10000nM) / (000nM): TMT; for Log2FC (1000nM) / (000nM): 1000 nM WM-3835, H3K14-CoA beads; for Log2FC (10000nM) / (000nM): 10000 nM WM-3835, H3K14-CoA beads
# [10] = target: KAT6A MYST domain; conditions: SPR, MYST domains, cited from earlier work
# [11] = tested on: NCI-60 cell line panel; test: NCI-60 cell line screen, sulforhodamine B growth inhibition; format: cell-based, human; conditions: most cases, 48 h
# [12] = tested on: KAT6B MYST domain; set-up: method as in https://www.nature.com/articles/s41586-018-0387-5; conditions: MYST domains, 0.4 uM AcCoA, H4 peptide; ref https://www.nature.com/articles/s41586-018-0387-5; cited from earlier work
# [13] = tested on: KAT8 MYST domain; set-up: method as in https://www.nature.com/articles/s41586-018-0387-5; conditions: MYST domains, 0.4 uM AcCoA, H4 peptide; ref https://www.nature.com/articles/s41586-018-0387-5; cited from earlier work
# [14] = tested on: H3K14Ac (KAT7); test: Histone acetylation biomarker western blot, MCF-7; format: cell-based; conditions: MCF-7 cells, 24 h
# [15] = 1 μM acetyl-CoA, WM-3835 sheet, ref https://www.nature.com/articles/s41586-019-1835-6
# [16] = protein MBTD1 (Q05BQ5, NuA4/Tip60)
# [17] = protein MRGBP (Q9NV56, NuA4/Tip60)
# [18] = protein TRRAP (Q9Y4A5, NuA4/Tip60)
structure (smiles),measurement,setting,value
Cc1cc(-c2ccccc2)cc(C(=O)NNS(=O)(=O)c2cccc(O)c2)c1F [WM-3835],pIC50,[1]; [15],6.51
same,inhibition of KAT8 (H4K16Ac),[2],not KAT8
same,pKd,[3],7.47
same,pKd,[4],6.30
same,pIC50,[5]; [15],7.52
same,inhibition of KAT6A/B-catalyzed H3K23Ac,[6],potently inhibits
same,pIC50,[7]; [15],7.77
same,more potent inhibition of KAT6A/B (H3K23Ac) than KAT7 (H3K14Ac),"[8]; MCF-7 model, 24 h",~ 100 fold
same,competition of JADE2 versus BRPF3 capture,"[9]; 0, 0.1, 1, 10 μM",differential competition of JADE2 and BRPF3 capture
same,Log2FC (100nM) / (000nM),"[9]; protein KAT14 (Q9H8E8, STAGA)",0.25
same,Log2FC (1000nM) / (000nM),"[9]; protein KAT14 (Q9H8E8, STAGA)",-0.01
same,Log2FC (10000nM) / (000nM),"[9]; protein KAT14 (Q9H8E8, STAGA)",-0.28
same,Log2FC (100nM) / (000nM),[9]; [16],0.4
same,Log2FC (1000nM) / (000nM),[9]; [16],0.54
same,Log2FC (10000nM) / (000nM),[9]; [16],0.24
same,Log2FC (100nM) / (000nM),[9]; [17],0.37
same,Log2FC (1000nM) / (000nM),[9]; [17],0.49
same,Log2FC (10000nM) / (000nM),[9]; [17],0.27
same,Log2FC (100nM) / (000nM),[9]; [18],-0.03
same,Log2FC (1000nM) / (000nM),[9]; [18],0.04
same,Log2FC (10000nM) / (000nM),[9]; [18],-0.06
same,pKd,"[10]; as previously described (WM-8014), ref https://www.nature.com/articles/s41586-019-1835-6",8.15
C[C@H](CN[C@@H](C(=O)Nc1ccc(-c2cnn(C)c2)cn1)c1ccccc1)c1ccc(C#N)cc1 [CPI-1612],growth inhibition potency compared with PF-9363,[11],much more potent
Cc1cc(-c2ccccc2)cc(C(=O)NNS(=O)(=O)c2ccccc2)c1F [WM-8014],pIC50,"[1]; 5 uM AcCoA, H4 peptide, ref https://www.nature.com/articles/s41586-018-0387-5",6.65
same,pIC50,[12],7.55
same,inhibition of KAT8 (H4K16Ac),[2],not KAT8
same,pIC50,[13],4.96
same,doses at which KAT7 (H3K14Ac) is inhibited,[14],10 to 30 µM
same,pIC50,"[5]; 1 uM AcCoA, H4 FL, ref https://www.nature.com/articles/s41586-018-0387-5",6.47
same,pIC50,"[7]; 0.4 uM AcCoA, H4 peptide, ref https://www.nature.com/articles/s41586-018-0387-5",8.09
same,pKd,[10]; ref https://www.nature.com/articles/s41586-018-0387-5,8.29
O=C(NNS(=O)(=O)c1ccccc1F)c1cc(F)cc(-c2ccccn2)c1 [WM-1119],IC50,"[1]; 1 μM acetyl-CoA, ref https://www.nature.com/articles/s41586-019-1835-6, read-out: KAT5 IC50 in μM (paper2)",9.8 µM
same,inhibition of KAT7 (H3K14Ac) at the highest concentration tested,[14]; 30 μM,little inhibition of KAT7
same,IC50,"[5]; 1 μM acetyl-CoA, ref https://www.nature.com/articles/s41586-019-1835-6, read-out: KAT7 IC50 in μM (paper2)",0.578 µM
same,IC50,"[7]; 0.4 uM AcCoA, ref https://www.nature.com/articles/s41586-018-0387-5, read-out: KAT6A IC50 in μM (paper 1)",0.0063 µM
same,IC50,"[7]; 1 μM acetyl-CoA, ref https://www.nature.com/articles/s41586-019-1835-6, read-out: KAT6A IC50 in μM (paper2)",0.077 µM
same,effect on biomarkers other than KAT6A/B,"[8]; MCF-7 cells, high concentrations",untouched
